From PubChem BioAssay (NCI)
“And” between values parts separate entries of the source, which are not always exact repeats. Equal values may be shown once.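 A five-concentration, 48-hour dose response in 96-well plates underlies each endpoint, interpolated linearly between surrounding concentrations. GI50 marks 50% less growth. TGI is the concentration that stops growth completely.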

Tests used:
Assay in all cases: inhibition of tumour cell growth, NCI panel, 48 h
[1] = system: LOX IMVI melanoma
[2] = system: SNB-19 CNS
[3] = system: SF-268 CNS
[4] = system: SN12C renal
[5] = system: T-47D breast
[6] = system: EKVX NSCLC
[7] = system: HT29 colon
[8] = system: MOLT-4 leukemia
[9] = system: RPMI-8226 leukemia
[10] = system: PC-3 prostate

Row | Structure (SMILES) | GI50 [1] | TGI [1] | GI50 [2] | TGI [2] | GI50 [3] | TGI [3] | GI50 [4] | TGI [4] | GI50 [5] | TGI [5] | TGI [6] | TGI [7] | TGI [8] | TGI [9] | GI50 [7] | GI50 [8] | GI50 [9] | GI50 [6] | GI50 [10] | TGI [10]
1 | Cc1ccc(S(=O)(=O)NCCNc2nccc(-c3c(-c4ccc(F)cc4)nc4sccn34)n2)cc1 | 4.86 µM | > 100 µM | 9.41 µM | 48.4 µM | 5.58 µM | 37.4 µM | 4.78 µM | > 100 µM | 3.85 µM | > 100 µM |  |  |  |  |  |  |  |  |  | 
2 | CC(=O)c1sc(-c2nc(C)c(C(=O)/C=C\c3ccc(/C=C\C(=O)c4sc(-c5nc(C)c(C(C)=O)s5)nc4C)cc3)s2)nc1C |  | > 100 µM |  | > 100 µM |  | > 100 µM |  | > 100 µM |  |  | > 100 µM | > 100 µM | > 100 µM | > 100 µM |  |  |  |  |  | 
3 | CC(C)(C=O)CC(C#N)/C(=N\NC(N)=O)C(=O)Nc1ccccc1C(N)=O (centres undefined) |  | > 100 µM |  | > 100 µM |  | > 100 µM |  | > 100 µM |  |  | > 100 µM | > 100 µM | > 100 µM | > 100 µM |  |  |  |  |  | 
4 | C=CCNC(=O)N(CCC)CCCCC(NC(C)=O)C(=O)NCc1ccccc1 (centres undefined) |  | > 100 µM |  | > 100 µM |  | > 100 µM |  | > 100 µM |  |  | > 100 µM | > 100 µM | > 100 µM | > 100 µM |  |  |  |  |  | 
5 | Cc1ccc(C2(O)CC(c3ccc([N+](=O)[O-])o3)=NN2C(=O)COc2ccc(Cl)cc2)cc1 (centres undefined) |  | 19 µM |  | 67.3 µM |  | 28.1 µM |  | 17.9 µM |  |  | 18.8 µM | > 38.8 µM | > 100 µM | > 21.2 µM |  |  |  |  |  | 
6 | CC1=NN(C(=O)CC(=O)N(C(=O)c2ccccc2Cl)c2ccc(C)cc2)C(=O)C1N=Nc1ccc([N+](=O)[O-])cc1 (centres undefined) |  | > 57.4 µM |  | > 100 µM |  | > 100 µM |  | > 100 µM |  |  | > 100 µM | > 100 µM | > 100 µM | > 70.3 µM |  |  |  |  |  | 
7 | Nc1nc(CCl)nc(Nc2ccccc2)n1 |  |  |  | > 100 µM |  | 45.2 µM |  |  |  |  |  | 27.9 µM | 37.2 µM | 19.8 µM |  |  |  |  |  | 
8 | COC(=O)/C(C)=C/[N+](=O)[O-] |  | 38.9 µM |  | 32.9 µM |  | 51.6 µM |  | 41 µM |  |  | 63.6 µM | 43.2 µM | 39.4 µM | 7.36 µM |  |  |  |  |  | 
9 | COc1ccc(C2c3cc(OC)c(OC)cc3C(Cc3ccc([N+](=O)[O-])cc3)C2c2ccc([N+](=O)[O-])cc2)cc1OC (centres undefined) |  | > 100 µM |  | > 100 µM |  | > 100 µM |  | > 100 µM |  |  | > 100 µM | > 100 µM | > 100 µM | > 100 µM |  |  |  |  |  | 
10 | COC(=O)/C(C=O)=C/Sc1ccccc1 |  | 23 µM |  | > 100 µM |  | 33 µM |  | 42.9 µM |  |  | > 100 µM | 81.3 µM | > 100 µM | > 100 µM |  |  |  |  |  | 
11 | C1C[OH+]CCNCC[OH+]CC[OH+]CCN1.[Cl-].[Pt+4] | > 100 µM | > 100 µM | > 100 µM | > 100 µM | > 100 µM | > 100 µM | > 100 µM | > 100 µM |  |  |  | > 100 µM | > 100 µM | > 100 µM | > 100 µM | > 100 µM | > 100 µM |  |  | 
12 | O=C(CSC(c1ccccc1)c1ccccc1)N/N=C/c1ccc(Cl)cc1Cl | 27.1 µM | 97.4 µM |  |  | 36.8 µM | > 100 µM | 15.7 µM | 29.9 µM |  |  | > 100 µM |  | 68.1 µM | 41.8 µM |  | 19.6 µM | 15.6 µM | 43.6 µM | 31.9 µM | > 100 µM
13 | N.N.N.N.[Cl-].[Co+3].[N-]=[N+]=[N-].[N-]=[N+]=[N-] | > 100 µM | > 100 µM | > 100 µM | > 100 µM | 81.6 µM | > 100 µM | > 100 µM | > 100 µM |  |  | > 100 µM | > 100 µM | > 100 µM | > 100 µM | > 100 µM | 38.6 µM | > 100 µM | > 100 µM |  | 
14 | C=C1C(=O)O[C@H]2/C=C(/C)C3=CC(=O)[C@@](C)(C[C@@H](OC(=O)/C(C)=C\C)C12)O3 (some centres undefined) |  | 1.14 µM |  | 29.7 µM |  | > 46.5 µM |  | 3.37 µM |  |  | 6.23 µM | 1.21 µM | 6.01 µM |  |  |  |  |  |  | 8.78 µM
15 | CC12CCCCC1(C)C2Sc1ccccc1 (centres undefined) |  | > 61 µM |  | > 100 µM |  | > 100 µM |  | > 100 µM |  |  | > 96.8 µM | > 100 µM | 41.6 µM | 40.3 µM |  |  |  |  |  | 
16 | C[C@@]12CCCc3coc(c31)C(=O)c1cc3c(cc12)C(=O)C=CC3=O | > 1 µM | > 1 µM and 35.1 µM | > 1 µM | > 100 µM |  | > 1 µM | > 1 µM | > 1 µM and 38.6 µM |  |  | 34.1 µM | > 1 µM and 44.9 µM | > 1 µM and 6.16 µM | > 1 µM and 35 µM | > 1 µM | > 1 µM | > 1 µM |  |  | 
17 | CCCCC1(CN2CCOCC2)S/C(=N/c2nc(CC(=O)OCC)cs2)NC1=O (centres undefined) | 20.3 µM | 42.5 µM | 38.4 µM | > 100 µM | 37.6 µM | > 100 µM | 35.8 µM | > 100 µM | 41.5 µM | > 100 µM | > 100 µM | > 100 µM | > 100 µM | 80.6 µM | 40 µM | 27.7 µM | 25.6 µM | 38.9 µM |  | 
18 | COc1cc(C2=C(c3cn(C)c4ccccc34)COC2=O)cc(OC)c1OC |  |  | 0.16 µM | > 100 µM | 0.802 µM | 7.41 µM | 0.593 µM | > 100 µM | 0.0604 µM | 8.65 µM | 5.42 µM |  | > 28.2 µM | 1.95 µM | 0.0383 µM | 0.055 µM | 0.109 µM | 0.121 µM | 0.125 µM | 53.8 µM
19 | CC1(C)O/C(=C\c2ccccc2)C(=O)/C(=C/c2ccccc2)O1 |  | > 100 µM |  | > 100 µM |  | > 100 µM |  | > 100 µM |  |  | > 100 µM | > 100 µM | 43.9 µM | 54.6 µM |  |  |  |  |  | 
20 | Nc1ccn(C2(CO)C=C(CO)C(O)C2O)c(=O)n1 (centres undefined) |  |  |  | > 25.8 µM |  | > 25.8 µM |  | > 25.8 µM |  |  | > 25.8 µM |  | > 25.8 µM | > 25.8 µM |  |  |  |  |  | 
21 | CCOC(=N)CC(=O)Nc1cccc(C)c1C |  | > 100 µM |  | > 100 µM |  | > 100 µM |  | > 100 µM |  |  | > 100 µM | > 100 µM | 7.46 µM |  |  |  |  |  |  | 
